The values below are quoted from earlier work in US8946160B2, “Nitric oxide amino acid esters for improving vascular circulation, and prophylaxis or treatment of a condition associated with impaired blood circulation” (Oral Delivery Technology Ltd., priority 2010, dated 2015).

Structures are written as SMILES.

Turning to `O=[N+]([O-])OCC(CO[N+](=O)[O-])O[N+](=O)[O-]` [nitroglycerin], the “maximum shelf life of a product containing nitroglycerin” value is listed as “about six”.
